Measured values: the supplement of paper PMC12420376
± gives the uncertainty stated by the source.

System: KURAMOCHI
Assay: cancer cell viability relative to untreated control; higher = less cytotoxic
Settings: 72 h
Description: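 KURAMOCHI or OVCAR8 cells were grown in monoculture or in co-culture with WI38 or patient-derived 030F fibroblasts and treated for 72 h with a dose matrix of carboplatin combined with birinapant or vorinostat (doses in nM). Cancer cell viability was measured by CK8/18 immunofluorescence imaging and expressed as % of untreated control, given as mean with SD.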

O=C(O)C1(C(=O)O)CCC1.[NH2-].[NH2-].[Pt+2] [Carboplatin] + O=C(CCCCCCC(=O)Nc1ccccc1)NO [Vorinostat]
cancer cell viability [%]
Settings	partner drug concentration 0 nM	partner drug concentration 1 nM	partner drug concentration 10 nM	partner drug concentration 100 nM	partner drug concentration 1000 nM	partner drug concentration 10000 nM
carboplatin concentration 10 nM, co-cultured fibroblast: 030F	95.1 ± 4.9	107 ± 15	95.5 ± 14	77.5 ± 16	36.9 ± 25	4.67 ± 3.6
carboplatin concentration 10 nM, co-cultured fibroblast: WI38	93.7 ± 9.7	107 ± 28	97.6 ± 18	70 ± 31	26.5 ± 20	5.05 ± 4.4
carboplatin concentration 10 nM, co-cultured fibroblast: none (monoculture)	101 ± 18	111 ± 22	101 ± 23	67.6 ± 34	31.1 ± 22	-0.479 ± 5.7
carboplatin concentration 100 nM, co-cultured fibroblast: 030F	95.5 ± 11	106 ± 20	102 ± 7.8	75.9 ± 19	28.8 ± 12	3.53 ± 2.5
carboplatin concentration 100 nM, co-cultured fibroblast: WI38	91.6 ± 15	101 ± 17	91.2 ± 13	63.2 ± 28	21 ± 13	5.14 ± 3.4
carboplatin concentration 100 nM, co-cultured fibroblast: none (monoculture)	95.7 ± 20	101 ± 17	92.7 ± 9.7	63.3 ± 26	24.3 ± 22	0.0805 ± 4.8
carboplatin concentration 1000 nM, co-cultured fibroblast: 030F	91.6 ± 11	85.7 ± 18	89.1 ± 17	58.1 ± 13	31.1 ± 9.2	6.6 ± 4.2
carboplatin concentration 1000 nM, co-cultured fibroblast: WI38	94.4 ± 11	88.8 ± 20	88.6 ± 15	52 ± 16	18.7 ± 9.2	5.75 ± 5
carboplatin concentration 1000 nM, co-cultured fibroblast: none (monoculture)	102 ± 21	103 ± 19	91.6 ± 15	54.2 ± 12	20.8 ± 15	1.21 ± 6.6
carboplatin concentration 1e+05 nM, co-cultured fibroblast: 030F	44.4 ± 13	47.7 ± 24	47.7 ± 13	38 ± 9.5	39 ± 15	1.97 ± 3.9
carboplatin concentration 1e+05 nM, co-cultured fibroblast: WI38	31.1 ± 12	39.3 ± 19	39.4 ± 20	30.1 ± 6.7	20.6 ± 3.4	0.366 ± 0.77
carboplatin concentration 1e+05 nM, co-cultured fibroblast: none (monoculture)	26.6 ± 5.7	37.6 ± 18	37 ± 14	22.8 ± 6.3	21.3 ± 5.6	-3.77 ± 2.5
carboplatin concentration 10000 nM, co-cultured fibroblast: 030F	51.7 ± 15	72.2 ± 30	71.1 ± 29	55.5 ± 14	45 ± 14	3.59 ± 2.8
carboplatin concentration 10000 nM, co-cultured fibroblast: WI38	40.7 ± 4.7	72 ± 28	68 ± 23	46.1 ± 11	28.8 ± 14	4.43 ± 3.5
carboplatin concentration 10000 nM, co-cultured fibroblast: none (monoculture)	23.9 ± 5.7	80.8 ± 36	62.8 ± 25	49.1 ± 14	27.5 ± 14	-0.104 ± 4.2

O=C(O)C1(C(=O)O)CCC1.[NH2-].[NH2-].[Pt+2] [Carboplatin] + CC[C@H](NC(=O)[C@H](C)NC)C(=O)N1C[C@@H](O)C[C@H]1Cc1c(-c2[nH]c3cc(F)ccc3c2C[C@@H]2C[C@H](O)CN2C(=O)[C@H](CC)NC(=O)[C@H](C)NC)[nH]c2cc(F)ccc12 [Birinapant]
cancer cell viability [%]
Settings	partner drug concentration 0 nM	partner drug concentration 0.1 nM	partner drug concentration 1 nM	partner drug concentration 10 nM	partner drug concentration 100 nM	partner drug concentration 1000 nM
carboplatin concentration 10 nM, co-cultured fibroblast: 030F	95.1 ± 4.9	97.5 ± 8.3	93.4 ± 9.6	82.9 ± 11	81.5 ± 6.7	84.3 ± 10
carboplatin concentration 10 nM, co-cultured fibroblast: WI38	93.7 ± 9.7	94.4 ± 8.1	87.7 ± 13	85 ± 5.5	80.4 ± 7.3	77.7 ± 11
carboplatin concentration 10 nM, co-cultured fibroblast: none (monoculture)	101 ± 18	93.7 ± 18	90.3 ± 14	79.5 ± 11	73.8 ± 10	67.6 ± 13
carboplatin concentration 100 nM, co-cultured fibroblast: 030F	95.5 ± 11	92 ± 4.9	94.7 ± 5.6	95.6 ± 13	84.5 ± 6.8	85.6 ± 5.8
carboplatin concentration 100 nM, co-cultured fibroblast: WI38	91.6 ± 15	88.5 ± 9.4	90.5 ± 4.1	98.4 ± 11	86.1 ± 10	82.2 ± 6.1
carboplatin concentration 100 nM, co-cultured fibroblast: none (monoculture)	95.7 ± 20	89.2 ± 12	91.7 ± 11	97.3 ± 18	66.7 ± 13	67.3 ± 8.5
carboplatin concentration 1000 nM, co-cultured fibroblast: 030F	91.6 ± 11	92.2 ± 12	100 ± 4.1	91.7 ± 15	82.9 ± 10	87.1 ± 12
carboplatin concentration 1000 nM, co-cultured fibroblast: WI38	94.4 ± 11	99.2 ± 6.3	98.2 ± 13	97.8 ± 15	88.5 ± 10	77.5 ± 11
carboplatin concentration 1000 nM, co-cultured fibroblast: none (monoculture)	102 ± 21	95 ± 13	90.7 ± 10	90.3 ± 9.4	74.3 ± 12	61 ± 12
carboplatin concentration 1e+05 nM, co-cultured fibroblast: 030F	44.4 ± 13	50.4 ± 8.6	60.3 ± 15	52.9 ± 11	40.4 ± 9.8	54.9 ± 8.4
carboplatin concentration 1e+05 nM, co-cultured fibroblast: WI38	31.1 ± 12	41.9 ± 9	48 ± 18	43.7 ± 10	36.4 ± 10	44.2 ± 10
carboplatin concentration 1e+05 nM, co-cultured fibroblast: none (monoculture)	26.6 ± 5.7	33.6 ± 4.6	38.4 ± 6.9	37.9 ± 12	18.6 ± 8.4	24.4 ± 9.1
carboplatin concentration 10000 nM, co-cultured fibroblast: 030F	51.7 ± 15	80.8 ± 4.5	88.2 ± 9.3	88.8 ± 8.8	72.4 ± 14	71.7 ± 7.3
carboplatin concentration 10000 nM, co-cultured fibroblast: WI38	40.7 ± 4.7	80 ± 16	83.2 ± 7.4	91.4 ± 14	74.1 ± 10	69.9 ± 5
carboplatin concentration 10000 nM, co-cultured fibroblast: none (monoculture)	23.9 ± 5.7	95.4 ± 14	72.3 ± 9.8	84.6 ± 27	57.4 ± 8.2	51.8 ± 7
